From article PMC9897788, “Design, synthesis and cytotoxic evaluation of novel bis-thiazole derivatives as preferential Pim1 kinase inhibitors with in vivo and in silico study” (Journal of Enzyme Inhibition and Medicinal Chemistry, 2023)

Legend:
[1] = tested on: Breast T47D cancer cell line; assay: In vitro inhibition concentration of breast T47D cancer cell line; assay type: cell-based; conditions: Homo sapiens
Procedure: Cells were seeded and treated with a range of inhibitors concentration 39–10,000 nM after 24 h relative to DMSO. […]

[2] = tested on: SK-MEL-28; assay: NCI 60 cell one-dose screening (SRB); assay type: cell-based; conditions: Homo sapiens; SK-MEL-28, Melanoma; single dose 10 µM, 48 h; read-out: Percentage of cellular growth inhibition
Summary of the method: (§1)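 DTP/NCI one-dose protocol: compound at 10 µM, 48 h, 37 °C, 5% CO2. Adherent lines fixed in 10% TCA, suspension lines in 16% TCA, then SRB-stained and read at 515 nm; data expressed as 100 minus percent growth.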

[3] = tested on: NCI-H23; assay: NCI 60 cell one-dose screening (SRB); assay type: cell-based; conditions: Homo sapiens; NCI-H23, Non-Small Cell Lung Cancer; single dose 10 µM, 48 h; read-out: Percentage of cellular growth inhibition
Summary of the method: as §1

[4] = tested on: T-47D; assay: NCI 60 cell one-dose screening (SRB); assay type: cell-based; conditions: Homo sapiens, T47D, 48 h, Breast Cancer, single dose 10 µM, read-out: Percentage of cellular growth inhibition
Summary of the method: as §1

[5] = tested on: K-562; assay: NCI 60 cell one-dose screening (SRB); assay type: cell-based; conditions: Homo sapiens, K562; K-562, Leukemia; single dose 10 µM, 48 h; read-out: Percentage of cellular growth inhibition
Summary of the method: as §1

[6] = tested on: SR; assay: NCI 60 cell one-dose screening (SRB); assay type: cell-based; conditions: Homo sapiens, Leukemia, single dose 10 µM, 48 h, read-out: Percentage of cellular growth inhibition
Summary of the method: as §1

[7] = tested on: HOP-92; assay: NCI 60 cell one-dose screening (SRB); assay type: cell-based; conditions: Homo sapiens, HOP-92, 48 h, HOP-92, Non-Small Cell Lung Cancer, single dose 10 µM, read-out: Percentage of cellular growth inhibition
Summary of the method: as §1

[8] = tested on: RXF 393; assay: NCI 60 cell one-dose screening (SRB); assay type: cell-based; conditions: Homo sapiens; RXF 393, Renal Cancer; single dose 10 µM, 48 h; read-out: Percentage of cellular growth inhibition
Summary of the method: as §1

[9] = tested on: SNB-75; assay: NCI 60 cell one-dose screening (SRB); assay type: cell-based; conditions: Homo sapiens; SNB-75, CNS Cancer; single dose 10 µM, 48 h; read-out: Percentage of cellular growth inhibition
Summary of the method: as §1

[10] = tested on: MDA-MB-468; assay: NCI 60 cell one-dose screening (SRB); assay type: cell-based; conditions: Homo sapiens; MDA-MB-468, Breast Cancer; single dose 10 µM, 48 h; read-out: Percentage of cellular growth inhibition
Summary of the method: as §1

[11] = tested on: SK-MEL-5; assay: NCI 60 cell one-dose screening (SRB); assay type: cell-based; conditions: Homo sapiens; SK-MEL-5, Melanoma; single dose 10 µM, 48 h; read-out: Percentage of cellular growth inhibition
Summary of the method: as §1

[12] = tested on: MCF7; assay: NCI 60 cell one-dose screening (SRB); assay type: cell-based; conditions: Homo sapiens; MCF7, Breast Cancer; single dose 10 µM, 48 h; read-out: Percentage of cellular growth inhibition
Summary of the method: as §1

[13] = tested on: LOX IMVI; assay: NCI 60 cell one-dose screening (SRB); assay type: cell-based; conditions: Homo sapiens, Melanoma, single dose 10 µM, 48 h, read-out: Percentage of cellular growth inhibition
Summary of the method: as §1

[14] = tested on: SF-268; assay: NCI 60 cell one-dose screening (SRB); assay type: cell-based; conditions: Homo sapiens; SF-268, CNS Cancer; single dose 10 µM, 48 h; read-out: Percentage of cellular growth inhibition
Summary of the method: as §1

[15] = tested on: OVCAR-4; assay: NCI 60 cell one-dose screening (SRB); assay type: cell-based; conditions: Homo sapiens; OVCAR-4, Ovarian Cancer; single dose 10 µM, 48 h; read-out: Percentage of cellular growth inhibition
Summary of the method: as §1

[16] = tested on: HCT-15; assay: NCI 60 cell one-dose screening (SRB); assay type: cell-based; conditions: Homo sapiens; HCT-15, Colon Cancer; single dose 10 µM, 48 h; read-out: Percentage of cellular growth inhibition
Summary of the method: as §1

[17] = tested on: NCI-H322M; assay: NCI 60 cell one-dose screening (SRB); assay type: cell-based; conditions: Homo sapiens, Non-Small Cell Lung Cancer, single dose 10 µM, 48 h, read-out: Percentage of cellular growth inhibition
Summary of the method: as §1

Structure (SMILES) | melting point [°C] | IC50 ([1]; 48 h) [µM] | IC50 ([1]; 96 h) [µM] | inhibition at 10 µM [2] [%] | inhibition at 10 µM [3] [%] | inhibition at 10 µM [4] [%] | inhibition at 10 µM [5] [%] | inhibition at 10 µM [6] [%] | inhibition at 10 µM [7] [%] | inhibition at 10 µM [8] [%] | inhibition at 10 µM [9] [%] | inhibition at 10 µM [10] [%] | inhibition at 10 µM [11] [%] | inhibition at 10 µM [12] [%] | inhibition at 10 µM [13] [%] | inhibition at 10 µM [14] [%] | inhibition at 10 µM [15] [%] | inhibition at 10 µM [16] [%] | inhibition at 10 µM [17] [%]
Cc1csc(Nc2cccc(Nc3nc(C)cs3)c2)n1 [3a, N^1,N^3-bis(4-methylthiazol-2-yl)benzene-1,3-diamine] | 137 to 139 | 7.82 | 2.86 | 10.4 | 21.2 | 36.8 | 17.1 | 17.3 | 41.2 | 4.8 | 1.6 | 15.9 | 6.2 | 21.9 | 25.5 | 1.4 | 11.8 | 7.3 | 4.9
CCOc1ccc(/N=N/c2sc(Nc3cccc(Nc4nc(C)c(/N=N/c5ccc(OCC)cc5)s4)c3)nc2C)cc1 [5b, N^1,N^3-bis(5-((4-ethoxyphenyl)diazinyl)-4-methylthiazol-2-yl)benzene-1,3-diamine] | 116 to 118 |  |  | 2.5 | 10.6 | 17.1 | -0.4 | -15.5 | 25.1 | 1 | 7.8 | 4.3 | 0.8 | 10.6 | 2.6 | 4.5 | 0.1 | 8.4 | 11.4
Clc1ccc(-c2csc(Nc3cccc(Nc4nc(-c5ccc(Cl)cc5)cs4)c3)n2)cc1 [6c, N^1,N^3-bis(4–(4-chlorophenyl)thiazol-2-yl)benzene-1,3-diamine] | 100 to 101 | 27.3 | 1.85 | -4.2 | 10.1 | 18.3 | 5.8 | 3.9 | 59.5 | 16.7 | 22.5 | 13.4 | 2.9 | 9.8 | 7.3 | 22.6 | 8.4 | 7.1 | 5
CC(=O)c1sc(Nc2cccc(Nc3nc(C)c(C(C)=O)s3)c2)nc1C [3b, 1,1’-(2,2’-(1,3-Phenylenebis(azanediyl))bis(4-methylthiazole-5,2-diyl))diethanone] |  | 5.77 | 1.46 | 28.5 | 36.8 |  | 59.1 | 61.5 | 36.4 | 53 | 37.1 | 45 | 44.2 | 38.3 | 51.9 | 28.9 | 48.5 | 55.1 | 38.3
CCOC(=O)c1sc(Nc2cccc(Nc3nc(C)c(C(=O)OCC)s3)c2)nc1C [3c, Diethyl 2,2’-(1,3-phenylenebis(azanediyl))bis(4-methylthiazole-5-carboxylate)] | 107 to 108 |  |  | 15.7 | 41.6 | 63.9 | 39.9 | 36.1 | 47.8 | 9 | 2.6 | 52.4 | 55.1 | 26.7 | 25.5 | 14.8 | 33.2 | 20.9 | 3.8
